Experimental data: ChEMBL document CHEMBL1938285, “Novel inhibitors of Mycobacterium tuberculosis dTDP-6-deoxy-L-lyxo-4-hexulose reductase (RmlD) identified by virtual screening” (Bioorg Med Chem Lett, 2011)
≈ marks a conversion by molar mass, not a printed value. Calls of active or inactive are those of the source. The calls are words filed in the database; no cut-off is given here.

Columns and labels:
[1] = target: T1, dTDP-4-dehydrorhamnose reductase (Mycobacterium tuberculosis) (UniProt P9WH09); experiment: Inhibition of Mycobacterium tuberculosis RmlD assessed as inhibition of dTDP-beta-6-deoxy-L-lyxo-4-hexulose to dTDP-beta-L-rhamnose conversion at 10 ug/ml
T1 sequence (whole entry): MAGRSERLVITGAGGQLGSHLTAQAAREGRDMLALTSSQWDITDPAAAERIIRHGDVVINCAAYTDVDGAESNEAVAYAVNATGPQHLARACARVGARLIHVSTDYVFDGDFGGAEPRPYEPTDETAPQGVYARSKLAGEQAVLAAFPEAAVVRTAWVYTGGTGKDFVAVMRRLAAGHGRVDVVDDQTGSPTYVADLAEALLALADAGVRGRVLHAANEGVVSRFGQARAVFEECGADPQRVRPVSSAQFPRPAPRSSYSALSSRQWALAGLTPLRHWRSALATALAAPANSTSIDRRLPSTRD

[2] = target: T2, dTDP-4-dehydrorhamnose reductase (Mycobacterium tuberculosis, UniProt P9WH09); experiment: Inhibition of Mycobacterium tuberculosis RmlD assessed as inhibition of dTDP-beta-6-deoxy-L-lyxo-4-hexulose to dTDP-beta-L-rhamnose conversion
T2 sequence (P9WH09 whole entry): T1 sequence (whole entry)

[3] = test system: Mycobacterium tuberculosis; experiment: Antimycobacterial activity against Mycobacterium tuberculosis H37Rv after 7 days by microbroth dilution-resazurin assay; format: functional; conditions: 168 h

Structure (SMILES) | inhibition [1] | IC50 [2] [nM] | MIC [3] [µg/mL]
Cc1cc(=O)oc2cc(O)c(O)cc12 | inactive |  | 
N#Cc1cnn2ccn([C@@H]3O[C@H](CO)[C@@H](O)[C@H]3O)c12 | inactive |  | 
NC(=O)CC[C@@H](C(=O)O)N1C(=O)c2ccc(O)cc2C1=O | inactive |  | 
O=C1C(Cl)=C(Nc2ccc3c[nH]nc3c2)C(=O)c2ccccc21 | inactive |  | 
NC(=S)c1cn([C@@H]2O[C@H](CO)[C@@H](O)[C@H]2O)c2ncnc(N)c12 | inactive |  | 
Oc1cc(C(c2ccccc2)c2ccccc2)c2ccccc2c1O | inactive |  | 
CC(=O)OCc1cc(-c2nc3ccccc3nc2O)nn1-c1ccc(Cl)cc1 | inactive |  | 
CSc1ncc2ncn([C@@H]3O[C@H](CO)[C@@H](O)[C@H]3O)c2n1 | inactive |  | 
CCC(c1ccccc1)C(CC)c1cc(O)c(O)c(O)c1 (configuration not stated) | inactive |  | 
COc1cccc2c1[C@H](CO)N1[C@H](C#N)[C@@H]3C[C@H](C(=O)O)[C@@H]([C@@H]1C2)N3C | inactive |  | 
O=C1C=C(c2ccccc2)OC(=O)C1C(=O)c1ccccc1 (configuration not stated) | inactive |  | 
Cc1ccc(NC(=O)Nc2cccnc2)cc1NC(=O)Nc1cccnc1 | inactive |  | 
C=Cc1c(C)c(O)cc2c1-c1ccc(O)c(C)c1CC2 | inactive |  | 
COc1ccccc1/C=C/C(=O)/C=C/c1ccccc1O | inactive |  | 
O=C(/C=C/c1ccc(O)c(O)c1)O[C@@H]1C[C@@](OC(=O)/C=C/c2ccc(O)c(O)c2)(C(=O)O)C[C@@H](O)[C@@H]1O | inactive |  | 
O[C@@H]1[C@@H](OCc2ccccc2)OC[C@H](O)[C@@H]1O | inactive |  | 
O=C1C=CC=CC1=C1c2cc(O)c(O)cc2Oc2cc(O)c(O)cc21 |  | 2100 | 133 (≈ 395 µM)
O=c1oc2c(cc1O)oc(=O)c1cc(O)c(O)c(O)c12 | inactive |  | 
CCC(CC)C(c1ccc(O)cc1)c1ccc(O)cc1 | inactive |  | 
Oc1ccc(C(O)(c2ccccc2)c2ccc(O)c3ccccc23)c2ccccc12 | inactive |  | 
O=c1cc2oc3cc(O)c(O)cc3c(-c3ccccc3)c-2cc1O |  | 900 | 200 (≈ 624 µM)
O=C(c1ccc(O)cc1)c1ccc(C(=O)c2ccc(O)cc2)cc1 | inactive |  | 
CC(c1cccc(O)c1)C(C)c1cccc(O)c1 (configuration not stated) | inactive |  | 
O=C(OCC(O)COC(=O)c1cccnc1)c1cccnc1 | inactive |  | 
O=c1ccc2c(-c3ccccc3O)c3ccc(O)cc3oc-2c1 | inactive |  | 

Structure (SMILES) | inhibition [1] | IC50 [2] [nM] | MIC [3] [µg/mL]
CCC(c1ccccc1)C(CC)c1ccc(O)c(O)c1 (configuration not stated) | inactive |  | 
CC(=O)Oc1c(C)c(OC(C)=O)c2c(c1C(C)=O)OC1CC(=O)C(C(C)=O)=C(O)C21C (configuration not stated) | inactive |  | 
C[C@@H]1O[C@@H](Oc2c(-c3cc(O)c(O)c(O)c3)oc3cc(O)cc(O)c3c2=O)[C@H](O)[C@H](O)[C@H]1O | inactive |  | 
Cn1c(=O)c2nc(CNc3ccc(C(=O)O)cc3)[nH]c2n(C)c1=O | inactive |  | 
COc1cc(NC(=O)c2cc3ccccc3cc2O)c(OC)cc1Cl | inactive |  | 
Cc1c(Cl)cccc1Nc1ncccc1C(=O)OCC(O)CO (configuration not stated) | inactive |  | 
Oc1ccc(C(c2ccc(O)cc2)c2ccc(O)cc2)cc1 | inactive |  | 
N=C(N)c1ccc(/C=C/c2ccc(C(=N)N)cc2O)cc1 | inactive |  | 
COc1ccccc1NC(=O)c1cc2cc(Br)ccc2cc1O | inactive |  | 
Cc1c2cc(O)c(=O)cc-2oc2cc(O)c(O)cc12 |  | 15000 | 62 (≈ 240 µM)
O=C1CC(c2ccccc2)c2ccc(O)cc2O1 (configuration not stated) | inactive |  | 
Cc1cc2c(cc1C)NC1=C(N2)OC(c2cccc(O)c2)C1=O (configuration not stated) | inactive |  | 
CC(Cc1ccc(O)c(O)c1)C(C)Cc1ccc(O)c(O)c1 (configuration not stated) | inactive |  | 
C=Cc1cc(O)cc2c1-c1ccc(O)c(C)c1CC2 [EFFUSOL] |  |  | 20 (≈ 79.3 µM)
COc1cc(/N=N/c2c(O)nc3ccccc3c2O)c(OC)cc1/N=N/c1ccccc1 | inactive |  | 
COc1cc(C(=O)C(=O)c2cc(OC)c(O)c(OC)c2)cc(OC)c1O | inactive |  | 
COc1ccc(OC)c(NC(=O)c2cc3oc4ccccc4c3cc2O)c1 | inactive |  | 
Oc1ccc(-c2ccc3ccccc3c2)cc1 | inactive |  | 
O=C(/C=C/c1ccc2ccccc2n1)c1cc(Cl)ccc1O | inactive |  | 
Oc1ccc2c(O)c3ccccc3cc2c1O | inactive |  | 
O=C(O)/C=C/c1c2ccc(=O)c(O)c-2oc2c(O)c(O)ccc12 | inactive |  | 
COc1ccc(NC(=O)c2cc3ccc4c5ccccc5[nH]c4c3cc2O)cc1 | inactive |  | 
CCC(c1ccc(O)cc1)C(CC)c1ccc(O)c(O)c1 (configuration not stated) | inactive |  | 
Cc1cc(O)c2cc3c(O)c(O)ccc3cc2c1 | inactive |  | 
